From US20110166123A1, “NOVEL COMPOSITIONS AND METHODS OF USE” (priority 2008, published 2011)
“And” between values parts separate entries of the source, which are not always exact repeats. Equal entries are not always repeated. Marks after values point to notes of the source that are not given here.

Experiments:
[1] = Hepatocyte stability (Example 36), rat; conditions: rat hepatocytes 1 million cells/mL, 37° C., 4 hours, LC-MS/MS
[2] = Hepatocyte stability (Example 36), human; conditions: human hepatocytes 1 million cells/mL, 37° C., 4 hours, LC-MS/MS
[3] = tested on: human immunodeficiency virus type 1 (HIV-1); assay: microbe, parasite or virus in culture; format: cell-based; conditions: Human immunodeficiency virus 1, HeLa, 48 h, HIV-1 luciferase reporter, HeLa cells, 48 hours after infection
[4] = Microsomal incubation (Method 1), rat; format: in vitro ADME; conditions: rat liver microsomes; compound 10 μM, 1 mg protein/mL, NADPH 1 mM, 60 minutes at 37° C.
Procedure: (§1) Compound (10 μM) was incubated with rat, dog, cynomolgus monkey, and human liver microsomes (1 mg protein/mL) in a final volume of 1 mL in 2-mL Eppendorf tubes. The mixture containing enzymes, potassium phosphate buffer (100 mM, pH 7.4), and the compound was pre-incubated at 37° C. for 3 min. The reaction was initiated by the addition of NADPH (final concentration of 1 mM) and incubated for 60 minutes at 37° C. The reaction was terminated by the addition of 1 mL of acetonitrile. After centrifugation at 12000 rpm for 3 minutes, the supernatant was subjected to 15 minutes of concentration (N2 flow, 32° C.). The resulting final extract was transferred to clean vials and analyzed by HPLC.

[5] = Microsomal incubation (Method 1), monkey; format: in vitro ADME; conditions: cynomolgus monkey liver microsomes; compound 10 μM, 1 mg protein/mL, NADPH 1 mM, 60 minutes at 37° C.
Procedure: as §1

[6] = Microsomal incubation (Method 1), dog; format: in vitro ADME; conditions: dog liver microsomes; compound 10 μM, 1 mg protein/mL, NADPH 1 mM, 60 minutes at 37° C.
Procedure: as §1

[7] = Microsomal incubation (Method 1), human; format: in vitro ADME; conditions: human liver microsomes, compound 10 μM, 1 mg protein/mL, NADPH 1 mM, 60 minutes at 37° C.
Procedure: as §1

[8] = Hepatocytes incubation (Method 1), monkey; format: in vitro ADME; conditions: compound 10 μM, 37° C., 2 hrs
Procedure: (§2) Cryopreserved hepatocytes were thawed in a water bath at 37° C. and transferred to a 50-mL tube containing 45 mL of pre-warmed incubation medium (In VitroGRO HT medium). The tube was inverted 3 times to ensure resuspension of hepatocytes and centrifuged at 50 g at room temperature for 5 minutes. The supernatant was decanted without disturbing the pellet. The pellet of hepatocytes was resuspended in 1 mL of William's E medium and the viable cell counting was determined by the tryptan blue exclusion method.
(§3) The William's E medium was added to the suspension of the hepatocytes pellet to make a final density of 2 million cells/mL. Stock solution of the compound was prepared at the concentration of 1 mM and diluted to 10 μM with William's E medium. The culture plate was incubated at 37° C. under 5% carbon dioxide and 95% air atmosphere for 2 hrs. The metabolic reaction was terminated by transferring the contents of the well into a centrifuge tube containing 1 mL of 0.1% TFAA acetonitrile solution and then vortexing. After centrifugation, the supernatant was subjected to 15 minute of concentration (N2 flow, 32° C.). The resulted final extract was transferred to clean vials for HPLC analysis.

[9] = Hepatocytes incubation (Method 1), human; format: in vitro ADME; conditions: compound 10 μM, 37° C., 2 hrs
Procedure: as §2, §3

[10] = Hepatocytes incubation (Method 1), rat; format: in vitro ADME; conditions: compound 10 μM, 37° C., 2 hrs
Procedure: as §2, §3

[11] = CYP3A4 activity 3800 (pmol/mg protein)

Compound: COc1nc2c(cc1NCc1c(F)cc(F)cc1F)c(=O)c(C(=O)O)cn2[C@H](CO)C(C)C [Example 20AA, (S)-1-(1-hydroxy-3-methylbutan-2-yl)-7-methoxy-4-oxo-6-(2,4,6-trifluorobenzylamino)-1,4-dihydro-1,8-naphthyridine-3-carboxylic acid]
- % Remaining (rat) [1]: 43%
- % Remaining (human) [2]: 75%
- EC50 [3]: < 10 nM

Compound: COc1cc2c(cc1Cc1cccc(Cl)c1F)c(=O)c(C(=O)O)cn2[C@H](CO)C(C)C [Example 30A, reference compound]
- % Remaining, Rat, Microsome [4]: 6.7 NA %
- % Remaining (rat) [1]: 29%
- % Remaining, Monkey, Microsome [5]: 4.1 NA %
- % Remaining, Dog, Microsome [6]: 83.8 NA %
- % Remaining, Human, Microsome [7, 11]: 40.5 (3800)* NA %
- % Remaining (human) [2]: 54%

Compound: Cc1nnc(C(=O)NC(C)(C)c2nc(C(=O)NCc3ccc(F)cc3)c(O)c(=O)n2C)o1 [Raltegravir, raltegravir, reference compound]
- % Remaining, Rat, Microsome [4]: 105%
- % Remaining, Monkey, Microsome [5]: 94.7%
- % Remaining, Monkey, Hepatocyte [8]: 20.0%
- % Remaining, Dog, Microsome [6]: 91.8%
- % Remaining, Human, Hepatocyte [9]: 32.4%
- % Remaining, Rat, Hepatocyte [10]: 43.3%

Compound: COc1nc2c(cc1Cc1cccc(Cl)c1F)c(=O)c(C(=O)O)cn2[C@H](CO)C(C)C [Example 1A, 6-(3-Chloro-2-fluoro-benzyl)-1-((S)-1-hydroxymethyl-2-methyl-propyl)-7-methoxy-4-oxo-1,4-dihydro-[1,8]naphthyridine-3-carboxylic acid]
- % Remaining, Rat, Microsome [4]: 38.1%
- % Remaining, Monkey, Microsome [5]: 66.3%
- % Remaining, Monkey, Hepatocyte [8]: 72.3%
- % Remaining, Dog, Microsome [6]: 102%
- % Remaining, Human, Hepatocyte [9]: 89.6%
- % Remaining, Human, Microsome [7, 11]: 101% and 96.1%
- % Remaining, Human, Microsome ([7]; CYP3A4 activity 7800 (pmol/mg protein)): 83.5%
- % Remaining, Rat, Hepatocyte [10]: 66.9%
- EC50 [3]: < 10 nM

Compound: COc1nc2c(cc1NCc1c(F)cc(F)cc1F)c(=O)c(C(=O)O)cn2[C@H](CO)C(C)(C)C [Example 20NN, (S)-1-(1-hydroxy-3,3-dimethylbutan-2-yl)-7-methoxy-4-oxo-6-(2,4,6-trifluorobenzylamino)-1,4-dihydro-1,8-naphthyridine-3-carboxylic acid]
- % Remaining (rat) [1]: 46%
- % Remaining (human) [2]: 61%
- EC50 [3]: < 10 nM

Compound: COc1ccc(-c2cc3c(=O)c(C(=O)O)cn([C@H](CO)C(C)C)c3nc2OC)cn1 [Example 17H]
- EC50 [3]: > 100 nM

Compound: COc1nc2c(cc1NCc1ccc(C)cc1)c(=O)c(C(=O)O)cn2[C@H](CO)C(C)C [Example 20A, (S)-1-(1-hydroxy-3-methylbutan-2-yl)-7-methoxy-6-(4-methylbenzylamino)-4-oxo-1,4-dihydro-1,8-naphthyridine-3-carboxylic acid]
- EC50 [3]: > 100 nM

Compound: CC(C)[C@@H](CO)n1cc(C(=O)O)c(=O)c2cc(Cc3cccc(Cl)c3F)c(F)nc21 [Example 2KK]
- EC50 [3]: 10 to 100 nM

Compound: CC(C)(C)[C@@H](CO)n1cc(C(=O)O)c(=O)c2cc(Cc3cccc(Cl)c3F)c(NCCN3CCOCC3)nc21 [Example 2CC]
- EC50 [3]: < 10 nM

Compound: CC(C)[C@@H](CO)n1cc(C(=O)O)c(=O)c2cc(Cc3cccc(Cl)c3F)ncc21 [Example 5A, 6-(3-Chloro-2-fluoro-benzyl)-1-((S)-1-hydroxymethyl-2-methyl-propyl)-4-oxo-1,4-dihydro-[1,7]naphthyridine-3-carboxylic acid]
- EC50 [3]: 10 to 100 nM

Compound: CCC[C@@H](CO)n1cc(C(=O)O)c(=O)c2cc(Cc3cccc(Cl)c3F)ncc21 [Example 5I]
- EC50 [3]: > 100 nM

Compound: CC(C)(C)[C@@H](CO)n1cc(C(=O)O)c(=O)c2cc(Cc3cccc(Cl)c3F)c(O)nc21 [Example 2B, (S)-6-(3-chloro-2-fluorobenzyl)-7-hydroxy-1-(1-hydroxy-3,3-dimethylbutan-2-yl)-4-oxo-1,4-dihydro-1,8-naphthyridine-3-carboxylic acid]
- EC50 [3]: 10 to 100 nM

Compound: CC(C)(C)[C@@H](CO)n1cc(C(=O)O)c(=O)c2cc(NCc3ccc(F)cc3)c(Cl)cc21 [Example 26E, (S)-7-chloro-6-(4-fluorobenzylamino)-1-(1-hydroxy-3,3-dimethylbutan-2-yl)-4-oxo-1,4-dihydroquinoline-3-carboxylic acid]
- EC50 [3]: > 100 nM

Compound: CN(C)CCOc1nc2c(cc1Cc1cccc(Cl)c1F)c(=O)c(C(=O)O)cn2[C@H](CO)C(C)(C)C [Example 2K]
- EC50 [3]: 10 to 100 nM

Compound: CC(C)(C)[C@@H](CO)n1cc(C(=O)O)c(=O)c2cc(Cc3cccc(Cl)c3F)c(OCCCO)nc21 [Example 2F]
- EC50 [3]: < 10 nM

Compound: O=C(O)c1cn(C(CO)CO)c2cnc(Cc3cccc(Cl)c3F)cc2c1=O [Example 5L]
- EC50 [3]: > 100 nM

Compound: CN(C)CCCOc1nc2c(cc1Cc1cccc(Cl)c1F)c(=O)c(C(=O)O)cn2[C@H](CO)C(C)(C)C [Example 2L]
- EC50 [3]: 10 to 100 nM
